Read-outs that look alike come from different tables or passages of the source.
Assays:
[1] = tested on: RAW264.7 mouse pre-osteoclast (monocyte/macrophage) cells; assay: Cell mortality and live cell numbers (trypan blue, hemacytometer); type: cell-based
Description: METHOD EXAMPLE. Cell culture. MC3T3 E1 mouse osteoblast-like cells (clone 14—MC3T3 E1-14; and no clonal cells in supplementary figures), and RAW264.7 mouse pre-osteoclast (monocyte/macrophage) cells were cultured in αMEM containing 10% fetal bovine serum and antibiotics (50 units/ml penicillin, and 50 μg/ml streptomycin; Life Technologies, Grand Island, N.Y., USA). Cells were maintained at 37° C. and 5% CO2 in a humidified incubator. Cell mortality and live cell numbers were determined 24 h after the treatment with 20 ng/ml RANKL (PeproTech, Rocky Hills, N.C., USA) in response to 0.1-20 μM salubrinal or 1-20 μM guanabenz acetate (Tocris Bioscience, Ellisville, Mo., USA). Cells were stained with trypan blue and the numbers of live and dead cells were counted using a hemacytometer.
METHOD EXAMPLE. Inhibition of osteoclastogenesis of RAW264.7 cells by salubrinal. The primary aim of this study is to evaluate the effects of salubrinal on osteoclastogenesis. In response to 0.1-20 μM salubrinal for 24 h, cell mortality and live cell numbers of RAW264.7 pre-osteoclasts was examined. […] The number of live cells was increased by ˜50% by incubation with RANKL, and administration of 10-20 μM salubrinal reduced the numbers approximately by 10% (FIG. 3B).
METHOD EXAMPLE. Inhibitory effects of guanabenz on osteoclastogenesis of RAW264.7 cells. To further examine a potential involvement of p-eIF2α in regulation of osteoclastogenesis, we employed guanabenz that also acts as an inhibitor of de-phosphorylation of eIF2α was evaluated. […] Compared to the number of TRAP-positive multi-nucleated cells of 377 39 (RANKL only), guanabenz reduced the number of differentiated osteoclasts to 364±38 (1 μM), 288±51 (5 μM), 189±25 (10 μM), and 73±16 (20 μM).

p-eIF2α = assay: Western immunoblotting, p-eIF2α in RAW264.7 cells; type: cell-based, mouse; details: with RANKL
Text: (§1) METHOD EXAMPLE. Reduction of RANKL-induced NFATcl, c-Fos, TRAP, and OSCAR by guanabenz. […] The normalized level of “1” was defined as the level for the cells that were not treated with RANKL without administration of guanabenz.
(§2) METHOD EXAMPLE. Western Immunoblotting. Cells were lysed in a radioimmunoprecipitation assay (RIPA) buffer containing protease inhibitors (Santa Cruz Biotechnology, Santa Cruz, Calif., USA) and phosphatase inhibitors (Calbiochem, Billerica, Mass., USA). Isolated proteins were fractionated using 10-15% SDS gels and electro-transferred to Immobilon-P membranes (Millipore, Billerica, Mass., USA). The membrane was incubated for 1 h with primary antibodies followed by 45 min incubation with goat anti-rabbit or anti-mouse IgG conjugated with horseradish peroxidase (Cell Signaling, Danvers, Mass., USA). We used antibodies against ATF4, NFATcl (Santa Cruz), p-eIF2α (Thermo Scientific, Waltham, Mass., USA), eIF2α, caspase 3, cleaved caspase 3, p38 and p-p38 mitogen activated protein kinase (MAPK), extracellular signal-regulated kinase (ERK) and p-ERK, nuclear factor kappa B (NFκB) p65 and p-NFκB p65 (Cell Signaling), and β-actin (Sigma). Protein levels were assayed using a SuperSignal west femto maximum sensitivity substrate (Thermo Scientific), and signal intensities were quantified with a luminescent image analyzer (LAS-3000, Fuji Film, Tokyo, Japan).
METHOD EXAMPLE. […]

Osteocalcin (OCN) = assay: Quantitative real-time PCR, osteocalcin mRNA in MC3T3 E1-14 cells; type: cell-based, mouse; details: for increase of the level of osteocalcin mRNA: 5 μM salubrinal
Description: METHOD EXAMPLE. Quantitative real-time PCR. Total RNA was extracted using an RNeasy Plus mini kit (Qiagen, Germantown, Md., USA). Reverse transcription was conducted with high capacity cDNA reverse transcription kits (Applied Biosystems, Carlsbad, Calif., USA), and quantitative real-time PCR was performed using ABI 7500 with Power SYBR green PCR master mix kits (Applied Biosystems). We evaluated mRNA levels of ATF4, Osteocalcin (OCN), NFATcl, c-Fos, tartrate-resistant acid phosphatase (TRAP), and osteoclast-associated receptor (OSCAR) with the PCR primers listed in Table 1. GAPDH was used for internal control. The relative mRNA abundance for the selected genes with respect to the level of GAPDH mRNA was expressed as a ratio of Streated/Scontrol, where Streated=mRNA level for the cells treated with chemical agents, and Scontrol=mRNA level for control cells.
METHOD EXAMPLE. Knockdown of ATF4 and eIF2α by siRNA. Cells were treated with siRNA specific to ATF4 and eIF2α (Life Technologies). Selected target sequences for knockdown of ATF4 and eIF2α were: ATF4, 5′-GCU GCU UAC AUU ACU CUA A-3′; and eIF2α, 5′-CGG UCA AAA UUC GAG CAG A-3′. As a nonspecific control, a negative siRNA (Silencer Select #1, Life Technologies) was used. Cells were transiently transfected with siRNA for ATF4, eIF2α or control in Opti-MEM I medium with Lipofectamine RNAiMAX (Life Technologies). Six hours later, the medium was replaced by regular culture medium. The efficiency of silencing was assessed with immunoblotting or quantitative PCR 48 h after transfection.
METHOD EXAMPLE. ATF4-mediated elevation of osteocalcin mRNA in MC3T3 E1-14 cells. Salubrinal is an inhibitor of de-phosphorylation of eIF2α. […] Furthermore, the level of osteocalcin mRNA was increased 3.3±0.5 fold (24 h) and 3.3±0.3 fold (32 h) (FIG. 2B). […] Non-clonal MC3T3 E1 cells also presented elevation of p-eIF2α and ATF4, together with an increase in the mRNA levels of ATF4 and osteocalcin (Supplementary FIG. S2).

NFATc1 = assay: Western immunoblotting, NFATc1 expression in RAW264.7 cells; type: cell-based, mouse; details: for expression of NFATc1: absence of RANKL administration
Description: METHOD EXAMPLE. Downregulation of NFATcl in RAW264.7 cells by salubrinal. NFATcl is a transcription factor critical for activating osteoclastogenesis. […] The RANKL-induced expression of NFATcl was reduced by administration of 5-20 μM salubrinal on both days, and the effect of salubrinal was dose dependent (FIG. 4).
as §1, §2
METHOD EXAMPLE. Temporal profile of p-eIF2α and NFATcl. […] Note that the normalized level of “1” in FIG. 6C was defined as the level for the cells that were not treated with RANKL without administration of guanabenz.

Row | SMILES | Cell mortality ratio ([1]; 0.1-20 μM salubrinal, 24 h, presence and absence of RANKL) | reduction of the number of live cells ([1]; 10-20 μM salubrinal, 24 h, with RANKL) | cell mortality ([1]; absence of RANKL administration) | level of p-eIF2α (p-eIF2α; 20 μM salubrinal, early period (2-4 h)) | increase of the level of osteocalcin mRNA (Osteocalcin (OCN); 24 h) | increase of the level of osteocalcin mRNA (Osteocalcin (OCN); 32 h) | salubrinal-driven elevation of the osteocalcin mRNA level (Osteocalcin (OCN); ATF4 expression reduced by RNA interference) | reduction of the level of NFATc1 (NFATc1; 20 μM salubrinal, 8 h, with RANKL) | reduction of the level of NFATc1 (NFATc1; 20 μM salubrinal, 24 h, with RANKL) | level of NFATc1 (NFATc1; 20 μM salubrinal, early period (2-4 h), with RANKL) | RANKL-induced expression of NFATc1 (NFATc1; 5-20 μM salubrinal, day 2 and day 4, dose dependent) | expression of NFATc1 (NFATc1) | cell mortality [1] | temporal expression profile of p-eIF2α (p-eIF2α; 20 μM guanabenz) | mRNA level of osteocalcin (Osteocalcin (OCN); guanabenz dose response) | temporal expression profile of NFATc1 (NFATc1; 20 μM guanabenz, with RANKL) | induction of NFATc1 by RANKL (NFATc1; guanabenz dose response, 2 days after RANKL)
1 | O=C(/C=C/c1ccccc1)NC(NC(=S)Nc1cccc2cccnc12)C(Cl)(Cl)Cl (stereo not drawn) [salubrinal] | did not present statistically significant differences | ~10% | did not significantly alter | increased the level of p-eIF2α | 3.3±0.5 fold | 3.3±0.3 fold | suppressed | 48% | 44% | did not alter | reduced | did not significantly alter | – | – | – | – | –
2 | N=C(N)N/N=C/c1c(Cl)cccc1Cl [guanabenz] | – | – | – | – | – | – | – | – | – | – | – | did not significantly alter | did not significantly alter | upregulatcd in 2 h | elevated the mRNA level of osteocalcin in a dose dependent manner | partially suppressed in 8 h | suppressed by guanabenz in a dose dependent manner
